Measurements from patent US12685725B2, “Pridopidine for the treatment of mitochondrial-associated diseases and disorders and endoplasmic reticulum (ER) stress” (PRILENIA NEUROTHERAPEUTICS LTD., priority 2019, dated 2026).
Like-named read-outs stand apart in the source and are kept apart here.

Assays:
[1] = tested on: YAC128 cortical and striatal neurons; conditions: 24 h
Experimental: After basal reading for 10 minutes, neurons were stimulated with antimycin A (2 μM).

HD human lymphoblasts = conditions: pridopidine 24 h prior to H2O2 6 h, p=0.0016
Experimental: Cell viability was assessed on lymphoblasts using the MTS assay, a measure of mitochondrial function and cell survival. The assay was performed according to the manufacturer's instructions (Promega, catalog no. G1112). In the day of experiment, MTS reagent was added to the culture media (1:10) and incubated at 37° C. for 4 hours. Then, lymphoblasts were centrifuged at 145×g for 5 min and media was collected. The absorbance of the formazan dye produced by viable cells was quantified in the medium at OD=490 nm.

[2] = tested on: CHOP, GADD34, ATF6, XBP1s in cells expressing myc-Htt96Q or myc-Htt20Q
Experimental: Total cell RNA was extracted with TRIzol reagent (Invitrogen) according to the manufacturer's instructions. […] Real-time PCR was carried out using a CFX Connect Real-Time PCR Detection System (BioRad) and the amplifications were done using the SYBR Green PCR Master Mix (Cat.No. pb089617-100-1) (Pcrbio). Reactions were run in triplicates in three independent experiments. Housekeeping gene GAPDH was used as an internal control to normalize the variability of expression levels.
Cells were lysed in PBS containing 1% Triton X-100, 0.5% sodium deoxycholate with protease inhibitors and centrifuged to pellet insoluble aggregates, debris and nuclei. Phosphatase inhibitor cocktail 2 and 3 and 10 mM […] phosphate were added to the lysis buffer to inhibit phosphatases for detection of phosphorylated proteins. Supernatants were separated from pellets and incubated in loading buffer for 5 min at 100° C., pellets were incubated for 10 min at 100° C. After SDS-PAGE and transfer to nitrocellulose membrane, blocking was done in 5% low-fat milk and 0.1% Tween-20 in PBS for 1 h. Incubation with the primary antibody was overnight at 4° C. and after three washes in 0.1% Tween-20 in PBS, incubation with the appropriate secondary antibody was for 1 h at room temperature. After washing, enhanced chemiluminescence assay was performed and the membrane was exposed and quantified in a Bio-Rad ChemiDocXRS Imaging System (Bio-Rad, Hercules, CA).

[3] = tested on: WT and YAC128 cortical and striatal neurons; conditions: 24 h
Experimental: Mitochondrial membrane potential (Δψm) was assessed in cortical and striatal neurons using the positively changed fluorescent probe TMRM (tetramethylrhodamine methyl ester) (Thermo Fisher Sci., catalog no: T668) and in cortical/striatal co-cultures and lymphoblasts using an equivalent probe, TMRE (tetramethylrhodamine ethyl ester) (Abcam, catalog no. ab113852).
Under these conditions, retention of TMRM by mitochondria was studied to estimate changes in Δψm. […] TMRM release was calculated based in the differences in fluorescence before and after addition of oligomycin/FCCP.

[4] = tested on: HD-iPSC-derived neural stem cells (HD-NSCs)
Experimental: Neural induction occurred between day 0 and days 12-15. From day 0 to day 5, cells were maintained in iPSC medium without FGF2 and incubated with 5 μM dorsomorphin and 10 μM SB431542. Medium was changed every other day. […] Between days 12 and 15, fields full of rosettes became morphologically visible. To allow the cells to differentiate, cells were replated in Geltrex® coated 12-well plates. For detaching, 500 μl of 1×Accutase® (Thermo Fisher Sci., catalog no: A1110501) was added to the plate and incubated at 37° C. in 5% CO2, for 15-20 min. Accutase was diluted in DMEM/F12 medium pre-warmed to 37° C. Cells were collected and spun for 3 min at 200×g at room temperature, and resuspended in 200 μl of media into 12-well plates. […] Cells were incubated overnight at 37° C., 5% CO2. Cells were passaged every 2-3 days for no more than 10-12 passages.
Oxygen consumption rate (OCR) in WT and hemizygous YAC128 cortical/striatal co-cultures and NSCs was measured using Seahorse XFe-24/96 flux analyzers (Seahorse Bioscience, Billerica, MA, USA) following the manufacturer's instructions. […] Pridopidine (0.1, 1 and/or 5 μM) was added, when indicated in the graphs, 24 h before the experiment. The sensor cartridge plate was incubated with immersed sensors in a non-CO2 incubator at 37° C. for ~16 h (overnight). […] The cell medium was aspirated gently to avoid disturbing cell monolayers. […] Accordingly, mitochondrial basal respiration, maximal respiration and ATP production was automatically calculated and recorded by the Seahorse software. Data was normalized for protein levels.

[5] = tested on: WT and YAC128 striatal neurons
Experimental: Briefly, plasmid was diluted in TE (in mM: 1 Tris-HCl pH 7.3, 1 mM EDTA), followed by the addition of CaCl2 (in mM: 2.5 CaCl2 in 10 HEPES, pH 7.2). The DNA solution was carefully added to 2×HEBS (in mM: 12 dextrose, 50 HEPES, 10 KCl, 280 NaCl and 1.5 Na2HPO4·2H2O, pH 7.2) while bubbling air through the solution. The mixture was then incubated for 25 min at room temperature. The precipitates were added dropwise to the coverslips in Neurobasal medium and incubated for 80 minutes at 37° C. The DNA-Ca^2+-phosphate precipitates were dissolved with freshly-made dissolution medium (Neurobasal medium with 20 mM HEPES, pH 6.8) and incubated for 7 min at room temperature. The transfected neurons were then washed with Neurobasal medium and transferred back to their original dishes containing conditioned culture medium until DIV12.
MitoDsRed-transfected striatal neurons were fixed with 4% paraformaldehyde (pre-warmed at 37° C.) for 20 minutes, permeabilized in 0.2% Triton X-100 in PBS for 2 minutes and blocked for 1 hour at room temperature in 3% (w/v) BSA in PBS. […] Confocal images were obtained as stacks, at 0.46 μm intervals along the z axis, using a Plan-Apochromat/1.4NA 63× lens on an Axio Observer.Z1 confocal microscope (Zeiss Microscopy, Germany) with Zeiss LSM 710 software. FIJI (ImageJ, National Institute of Health, USA) was used for image analysis. […] To optimally resolve individual mitochondria, a threshold was applied followed by the Analyze Particles function to trace mitochondrial outlines. For S1R and IP3R3 fluorescence, a threshold was set similarly to the one described above, and Integrated Density was obtained. S1R and IP3R3 Integrated Density was calculated inside of mitochondrial ROIs selection to obtain ER co-localization with mitochondria.

[6] = cells expressing mutant Htt96Q, 48 h
[7] = YAC128 striatal neurons, 1 μM, 24 h

CCCN1CCC(c2cccc(S(C)(=O)=O)c2)CC1 [Pridopidine, 4-[3-(methylsulfonyl)phenyl]-1-propyl-piperidine]
mito-H2O2 levels prompted by Ant A ([1]; YAC128 cortical neurons, 1 μM, p<0.0001): reverts the increased levels of mito-H2O2 prompted by Ant A
mito-H2O2 levels prompted by Ant A ([1]; YAC128 striatal neurons, 0.1 μM, p=0.0005): reverts the increased levels of mito-H2O2 prompted by Ant A
mito-H2O2 levels prompted by Ant A ([1]; YAC128 striatal neurons, 1 μM, p<0.0001): reverts the increased levels of mito-H2O2 prompted by Ant A
increase in cell viability (HD human lymphoblasts): approximately 50%
reduction in ATF6 fragment ([2]; Htt96Q-expressing cells, 3 μM): 35%
reduction in XBP-1s mRNA (IRE1 pathway) ([2]; Htt96Q-expressing cells, 3 μM): 25%
CHOP and GADD34 levels ([2]; cells expressing Htt20Q): does not affect these factors
reduction of CHOP levels [2, 6]: 2.5 fold
reduction of GADD34 levels [2, 6]: 7 fold
mitochondrial membrane potential (MMP), TMRM release ([3]; WT striatal neurons, 1 μM, p=0.0013): also increases MMP
mitochondrial membrane potential (MMP), TMRM release ([3]; Y128 high mHTT, cortical neurons, 0.1 μM, p=0.015): significantly increases MMP
mitochondrial membrane potential (MMP), TMRM release ([3]; Y128 high mHTT, cortical neurons, 1 μM, p=0.0201): significantly increases MMP
mitochondrial membrane potential (MMP), TMRM release ([3]; Y128 high mHTT, striatal neurons, 0.1 μM, p=0.0407): significantly increases MMP
mitochondrial membrane potential (MMP), TMRM release ([3]; Y128 high mHTT, striatal neurons, 1 μM, p=0.0017): significantly increases MMP
mitochondrial membrane potential (MMP), TMRM release ([3]; Y128 low mHTT, cortical neurons, 0.1 μM, p=0.0008): significantly increases MMP
mitochondrial membrane potential (MMP), TMRM release ([3]; Y128 low mHTT, cortical neurons, 1 μM, p=0.0303): significantly increases MMP
mitochondrial membrane potential (MMP), TMRM release ([3]; Y128 low mHTT, striatal neurons, 0.1 μM, p=0.0274): significantly increases MMP
ATP production [4]: shows a trend towards increasing ATP production
maximal respiration [4]: also increases
mitochondrial basal respiration [4]: also increases mitochondrial basal
S1R co-localization with mitochondria ([5]; Y128 neurons, 1 μM, 24 h, p<0.0001): increase in IP3R and S1R co-localization with mitochondria
IP3R co-localization with mitochondria ([5]; Y128 neurons, 1 μM, 24 h, p=0.0001): increase in IP3R and S1R co-localization with mitochondria
total S1R protein levels ([5]; Y128 striatal neurons): restores S1R levels to WT levels
S1R total levels in neurites [5, 7]: significantly increases S1R levels
S1R total levels in soma [5, 7]: significantly increases S1R levels
